Series [1] in a line: Pharmacokinetic test in SD rats, single oral administration. The conditions noted are these: 10 mg/kg, single oral administration 10 mg/kg, test compound mixed with F901318, plasma; for Cmax: read-out: Cmax; for Tmax: read-out: Tmax; for half-life: read-out: T½ (converted). The format is in vivo. On the procedure: Pharmacokinetic study is performed on SD rats receiving single oral administration of each test compound mixed with F901318 (10 mg/kg, 3 rats per group). Test compounds and F901318 are dissolved with […]+10% solutol+85% saline, vortexed for 1-2 mins and ultra-sonicated for 5-10 mins to form a colorless clear drug solution. The animals are fasted overnight before oral administration, and resumed feeding 4 hours after administration. After oral administration, pharmacokinetic samples are collected from orbital blood of SD rats at 0.083 h, 0.25 h, 0.5 h, 1 h, 2 h, 4 h, 6 h, 8 h, and 24 h, and three whole blood samples are collected at each time point in a volume of 0.2-0.3 mL. Blood samples are placed on ice immediately after collected, and the plasma is separated by centrifugation within 15 min (centrifugation conditions: 8000 rpm, 1 min, and at room temperature).
The collected plasma is stored at −20° C. prior to analysis. Transfer 20 μL of plasma sample into an 0.5 mL EP tube, add 200 μL of working internal standard solution (blank group is without internal standard, using the same volume of solvent instead), vortex and mix for 3 min centrifuge at 13500 rpm for 10 min, take 100 μL of supernatant and analyze with LC-MS/MS.

The test system of series [2] is Aspergillus fumigatus (ATCC-204305). The experiment in a line: Measurement of minimum inhibitory concentration (MIC), ATCC 204305. The class given is cell-based. The conditions noted are these: ATCC204305; Aspergillus fumigatus ATCC 204305, 35° C., 48 hours. On the procedure:
New streaks are made with glycerol stock solution of the strains of Aspergillus [NT] MYA-4609/AF 293/CBS 101355) on Sabouraud's dextrose agar (SDA), incubate at 35° C. and a humidity of 40-70% for 72 hours. Other strains are processed as the same as AF293. RPMI1640: one packet of RPMI1640 powder is dissolved in 1 L purified water and mixed well, add 0.165M MOPS, adjust the pH to 7.0, sterilize by filtration with 0.22 um membrane, and store at 4° C. for no more than 3 months. Physiological saline: weigh 9 g of sodium chloride powder and dissolve in 1 L of purified water, and mixed well. […] Dissolve the test compound and stock solution of one control compound with DMSO and obtain solutions at a concentration of 12.8 mg/mL The maximum concentration of each compound is 0.8 mg/mL (e.g., 150 μL of dimethyl sulfoxide+10 uL of 12.8 mg/mL compound/control). […] Repeat the above steps up to column 11 to give 2× serial dilutions. 2 μL of the above 2× serial dilutions are injected into each hole of the corresponding test plate using a multichannel pipette. Drop 5 ml of saline on the Aspergillus fumigatus SDA plate. The spores were carefully wiped off from the surface of the plate with an L-shaped coating rod. Then the suspension is transferred into a sterile tube. After shaking, let the tube stand for 5 to 10 minutes. Count the number of spores in the upper suspension with a hemocytometer and check the purity. Adjust the inoculum concentration to 0.2-2.5×10^4 spores/mL. Inject 198 μL of diluted inoculum into each holes of the corresponding test plate using a multichannel pipette. Incubate at 35° C. for 48 hours. […] To facilitate scoring of the presence or absence of growth on the wall, a magnifying glass is used. The tested 96-well microplates were photographed and the optical density at 530 nm is read with an enzyme marker (Tecan Spark).

Series [3] can be described thus: Liver microsomal stability test, human. The format is in vitro ADME. The conditions noted are these: Human liver microsomes; for CLint scaled / half-life: 0.5 mg/mL protein, 37° C., NADPH. How it is done:
(§1) • 1: Add 10 μL of working solutions of test product or reference product and 80 μL of microsomal working solution (liver microsomal protein concentration of 0.5 mg/mL) to wells of TO, T5, T10, T20, T30, T60, and NCF60, and only microsomal working solution is added to the Blank60 wells. Then the samples of Blank60, T10, T20, T30 and T60, except for TO and NCF60, are placed in a water bath set at 37° C. and incubate for approximately 10 mins; • 2: Add 300 μL of termination solution (acetonitrile solution containing 200 ng/mL tolbutamide and 200 ng/mL labetalol) to Sample TO, followed by 10 ul of NADPH regeneration system working solution; • 3: After incubation of Blank60, T5, T10, T20, T30 and T60 on incubation plates, add 10 μL of NADPH regeneration system working solution to each sample well to start the reaction, and 10 uL of 100 mM potassium phosphate buffer is add to the NCF60 sample wells; • 4: After incubation for appropriate times (e.g., 5, 10, 20, 30 and 60 mins), 300 μL of termination solution is add to each sample well of test product and reference product on Blank60, T5, T10, T20, T30, T60 and NCF60 plates, respectively, to terminate the reaction. • 5: All sample plates are shaken well and centrifuged at 4000 rpm for 20 min, take 100 μL of the supernatant of the test product or reference product, dilute in 300 μL of pure water for LC-MS/MS analysis, respectively. • 6: Data analysis, T½ and CLint(mic) (μL/min/mg) values are calculated based on the first-order elimination kinetics, and the equations of first-order elimination kinetics are: […]

A short description of series [4]: Liver microsomal stability test, mouse. The format is in vitro ADME. The conditions noted are these: Mouse liver microsomes; for CLint scaled / half-life: 0.5 mg/mL protein, 37° C., NADPH. On the procedure:
as §1

Where [5] appears, read: SD, rat, plasma, po, read-out: AUC.

≈ marks a conversion by molar mass, not a printed value. Where “and” joins values, the source holds several entries; their conditions need not be identical. Equal values may be shown once. Read-outs that look alike come from different tables or passages of the source.

For the compound `Cc1cc(-c2ccccc2)c(C(=O)C(=O)Nc2cc(F)c3c(c2)OC[C@H]2CN(c4ncc(F)cn4)CCN32)n1C` [Example 5], in series [1] (setting [5]), the AUC worked out at 16000 ng·h/mL. For the same compound, in series [1] (SD, rat, plasma, po), the Cmax is 1930 ng/mL, the Tmax was 60 min and the half-life is 257 min. Besides, it took 0.016 µg/mL (≈ 0.0294 µM) to inhibit growth in series [2] (MIC). Besides, in series [3], the intrinsic metabolic clearance (CLint scaled) amounted to 48.8 mL/min/kg; the half-life was 25.6 min; the “Remaining, (T = 60 min)” value is given as 20.4%. In series [4], the CLint scaled was 115 mL/min/kg; the half-life is 21.8 min; the “Remaining, (T = 60 min)” value is on record as 15.7%.

With `Cc1cc(-c2ccccc2)c(C(=O)C(=O)Nc2ccc3c(c2)C[C@H]2CN(c4ncc(F)cn4)CCN32)n1C` [Example 33, (S)-2-(1,5-dimethyl-3-phenyl-1H-pyrrol-2-yl)-N-(2-(5-fluoropyrimidin-2-yl)-1,2,3,4,10,10a-hexahydropyrazino[1,2-a]indol-8-yl)-2-oxoacetamide], the AUC in series [1] (setting [5]) is 36100 ng·h/mL. For the same compound, in series [1] (SD, rat, plasma, po), the Cmax stood at 3490 ng/mL, the Tmax was determined as 60 min and the half-life was 451 min. The same compound returned an MIC in series [2] of 0.016 µg/mL (≈ 0.0313 µM). Moreover, in series [3], the CLint scaled was found to be 25.9 mL/min/kg; the half-life is 48.2 min; the “Remaining, (T = 60 min)” value amounted to 43.4%. Also, in series [4], the CLint scaled stood at 50.2 mL/min/kg; the half-life came to 49.6 min; the “Remaining, (T = 60 min)” value is listed as 44.8%.

With `Cc1cc(-c2ccccc2)c(C(=O)C(=O)Nc2ccc(N3CCN(c4ncc(F)cn4)CC3)cc2)n1C` [Example F901318, reference compound], the AUC in series [1] (setting [5]) is 7540 ng·h/mL. The AUC in series [1] is 9170.038 ng·h/mL and 7652.703 ng·h/mL and 9641.325 ng·h/mL. In addition, in series [2], the MIC stood at 0.016 µg/mL (≈ 0.0321 µM). In series [3], the CLint scaled stood at 37.8 mL/min/kg; the half-life came to 33 min; the “Remaining, (T = 60 min)” value is listed as 27.7%. In series [4], the CLint scaled came to 98.9 mL/min/kg; the half-life amounted to 25.2 min; the “Remaining, (T = 60 min)” value amounted to 18.7%.

Values taken from US20240327423A1, “A SERIES OF PYRROLE DERIVATIVES AND THEIR PREPARATION METHOD AND THERAPEUTIC USE” (SHENZHEN SUNGENING BIO-MEDICAL CO., LTD, priority 2020, published 2024).
